Measurements: ChEMBL document CHEMBL3046147, “Synthesis and Herbicidal Activity of 1-Arylalkyl-3-pyrrolin-2-one Derivatives” (J Pestic Sci, 2000)
Activity calls are given as the source filed them. The calls are words filed in the database; no cut-off is given here.

Tests used:
Echinochloa oryzicola [1] = assay: Herbicidal activity against Echinochloa oryzicola grown in water-drained pot under greenhouse condition assessed as growth inhibition at 250 g /ha measured after 13 days; assay type: functional, organism-based
Echinochloa oryzicola [2] = assay: Herbicidal activity against Echinochloa oryzicola grown in water-drained pot under greenhouse condition assessed as growth inhibition at 1000 g /ha measured after 13 days; assay type: functional, organism-based
Echinochloa oryzicola [3] = assay: Herbicidal activity against Echinochloa oryzicola grown in water-drained pot under greenhouse condition assessed as growth inhibition at 1000 g /ha measured after 27 days; assay type: functional, organism-based
Echinochloa oryzicola [4] = assay: Herbicidal activity against Echinochloa oryzicola under greenhouse condition assessed as growth inhibition at 250 g /ha measured after 27 days; assay type: functional, organism-based
Echinochloa oryzicola [5] = assay: Herbicidal activity against Echinochloa oryzicola under greenhouse condition assessed as growth inhibition at 1000 g /ha measured after 27 days; assay type: functional, organism-based
Echinochloa oryzicola [6] = assay: Herbicidal activity against Echinochloa oryzicola grown in water-drained pot under greenhouse condition assessed as growth inhibition at 250 g /ha measured after 20 days; assay type: functional, organism-based
Echinochloa oryzicola [7] = assay: Herbicidal activity against Echinochloa oryzicola grown in water-drained pot under greenhouse condition assessed as growth inhibition at 1000 g /ha measured after 33 days; assay type: functional, organism-based
Echinochloa oryzicola [8] = assay: Herbicidal activity against Echinochloa oryzicola under greenhouse condition assessed as growth inhibition at 250 g /ha measured after 13 days; assay type: functional, organism-based
Echinochloa oryzicola [9] = assay: Herbicidal activity against Echinochloa oryzicola grown in water-drained pot under greenhouse condition assessed as growth inhibition at 250 g /ha measured after 42 days; assay type: functional, organism-based
Echinochloa oryzicola [10] = assay: Herbicidal activity against Echinochloa oryzicola under greenhouse condition assessed as time duration of residual effect at 1000 g /ha; assay type: functional
Echinochloa oryzicola [11] = assay: Herbicidal activity against Echinochloa oryzicola grown in water-drained pot under greenhouse condition assessed as time duration of residual effect at 250 g /ha; assay type: functional
Echinochloa oryzicola [12] = assay: Herbicidal activity against Echinochloa oryzicola under greenhouse condition assessed as growth inhibition at 1000 g /ha measured after 42 days; assay type: functional, organism-based
Echinochloa oryzicola [13] = assay: Herbicidal activity against Echinochloa oryzicola under greenhouse condition assessed as growth inhibition at 250 g /ha measured after 6 days; assay type: functional, organism-based
Echinochloa oryzicola [14] = assay: Herbicidal activity against Echinochloa oryzicola under greenhouse condition assessed as time duration of residual effect at 250 g /ha; assay type: functional
Echinochloa oryzicola [15] = assay: Herbicidal activity against Echinochloa oryzicola grown in water-drained pot under greenhouse condition assessed as growth inhibition at 250 g /ha measured after 6 days; assay type: functional, organism-based
Echinochloa oryzicola [16] = assay: Herbicidal activity against Echinochloa oryzicola grown in water-drained pot under greenhouse condition assessed as growth inhibition at 1000 g /ha measured after 42 days; assay type: functional, organism-based
Echinochloa oryzicola [17] = assay: Herbicidal activity against Echinochloa oryzicola under greenhouse condition assessed as growth inhibition at 1000 g /ha measured after 13 days; assay type: functional, organism-based
Echinochloa oryzicola [18] = assay: Herbicidal activity against Echinochloa oryzicola under greenhouse condition assessed as growth inhibition at 250 g /ha measured after 20 days; assay type: functional, organism-based
Echinochloa oryzicola [19] = assay: Herbicidal activity against Echinochloa oryzicola under greenhouse condition assessed as growth inhibition at 1000 g /ha measured after 6 days; assay type: functional, organism-based
Echinochloa oryzicola [20] = assay: Herbicidal activity against Echinochloa oryzicola grown in water-drained pot under greenhouse condition assessed as growth inhibition at 1000 g /ha measured after 6 days; assay type: functional, organism-based
Echinochloa oryzicola [21] = assay: Herbicidal activity against Echinochloa oryzicola under greenhouse condition assessed as growth inhibition at 250 g /ha measured after 42 days; assay type: functional, organism-based
Echinochloa oryzicola [22] = assay: Herbicidal activity against Echinochloa oryzicola under greenhouse condition assessed as growth inhibition at 1000 g /ha measured after 20 days; assay type: functional, organism-based
Echinochloa oryzicola [23] = assay: Herbicidal activity against Echinochloa oryzicola grown in water-drained pot under greenhouse condition assessed as growth inhibition at 1000 g /ha measured after 20 days; assay type: functional, organism-based
Echinochloa oryzicola [24] = assay: Herbicidal activity against Echinochloa oryzicola under greenhouse condition assessed as growth inhibition at 250 g /ha measured after 33 days; assay type: functional, organism-based
Echinochloa oryzicola [25] = assay: Herbicidal activity against Echinochloa oryzicola grown in water-drained pot under greenhouse condition assessed as growth inhibition at 250 g /ha measured after 33 days; assay type: functional, organism-based
Echinochloa oryzicola [26] = assay: Herbicidal activity against Echinochloa oryzicola grown in water-drained pot under greenhouse condition assessed as growth inhibition at 250 g /ha measured after 27 days; assay type: functional, organism-based
Echinochloa oryzicola [27] = assay: Herbicidal activity against Echinochloa oryzicola grown in water-drained pot under greenhouse condition assessed as time duration of residual effect at 1000 g /ha; assay type: functional
Echinochloa oryzicola [28] = assay: Herbicidal activity against Echinochloa oryzicola under greenhouse condition assessed as growth inhibition at 1000 g /ha measured after 33 days; assay type: functional, organism-based

For `CN(C(=O)COc1nc2ccccc2s1)c1ccccc1` [MEFENACET], the “growth inhibition (GI)” value (Echinochloa oryzicola [1]) was “Active”, the “growth inhibition (GI)” value (Echinochloa oryzicola [2]) was “Active” and the “growth inhibition (GI)” value (Echinochloa oryzicola [3]) was “Active”. For the same molecule, the “growth inhibition (GI)” value (Echinochloa oryzicola [4]) was “inactive”, the “growth inhibition (GI)” value (Echinochloa oryzicola [5]) was “Active” and the “growth inhibition (GI)” value (Echinochloa oryzicola [6]) was “inactive”. The “growth inhibition (GI)” value (Echinochloa oryzicola [7]) was “Active”, the “growth inhibition (GI)” value (Echinochloa oryzicola [8]) was “Active” and the “growth inhibition (GI)” value (Echinochloa oryzicola [9]) was “inactive”. The Time (Echinochloa oryzicola [10]) was 33 days, the Time (Echinochloa oryzicola [11]) was 13 days and the “growth inhibition (GI)” value (Echinochloa oryzicola [12]) was “Active”. The “growth inhibition (GI)” value (Echinochloa oryzicola [13]) was “Active”, the Time (Echinochloa oryzicola [14]) was 13 days and the “growth inhibition (GI)” value (Echinochloa oryzicola [15]) was “Active”. The “growth inhibition (GI)” value (Echinochloa oryzicola [16]) was “Active”, the “growth inhibition (GI)” value (Echinochloa oryzicola [17]) was “Active” and the “growth inhibition (GI)” value (Echinochloa oryzicola [18]) was “Active”. The “growth inhibition (GI)” value (Echinochloa oryzicola [19]) was “Active”, the “growth inhibition (GI)” value (Echinochloa oryzicola [20]) was “Active” and the “growth inhibition (GI)” value (Echinochloa oryzicola [21]) was “inactive”. For the same molecule, the “growth inhibition (GI)” value (Echinochloa oryzicola [22]) was “Active”, the “growth inhibition (GI)” value (Echinochloa oryzicola [23]) was “Active” and the “growth inhibition (GI)” value (Echinochloa oryzicola [24]) was “inactive”. For the same molecule, the “growth inhibition (GI)” value (Echinochloa oryzicola [25]) was “inactive”, the “growth inhibition (GI)” value (Echinochloa oryzicola [26]) was “inactive” and the Time (Echinochloa oryzicola [27]) was 33 days. The “growth inhibition (GI)” value (Echinochloa oryzicola [28]) was “Active”.
